Consider twelve compounds from PubChem BioAssay AID336 (DTP/NCI, 2004).

Molecules are shown by their SMILES. Values joined by “and” are separate entries in the source; they are usually repeats but may differ in a detail not shown here. Identical values can stand only once. Inconclusive results and toxic doses are left out. *1 amine or outer side, *2 acyl side, *3 side chain or, on linkers, in order; H or OH if unused. Where a SMILES comes first, the peptide text is derived from it. Bridges are numbered along the chain shown (N, C = ends). Roman numbers before positions name the chains, in order. [ ]: non-standard residue; d: D form. Actinocin(9to1) = Cc1c2oc3c(C)ccc(C(=O)[*:1])c3nc-2c(C(=O)[*:2])c(N)c1=O; aThr = C[C@H](O)[C@H](N)C(=O)O; NMeV = CN[C@H](C(=O)O)C(C)C; Sar = CNCC(=O)O

The assay concerns BDF1 mice, P388/VCR leukemia ip, median survival T/C. Kind of assay: NCI In Vivo Anticancer Drug Screen. Data for tumor model P388 Leukemia resistant to Vincristine; NSC 67574 (intraperitoneal) in B6D2F1 (BDF1) mice. The settings on record: endpoint: median survival time, higher = longer survival. The method, then: The antitumor activity of compounds was measured in mice bearing transplantable tumors. Survival or tumor size were measured and the results are expressed as the measurement made in the treated group (T) divided by the measurement made in the vehicle treated control group (C). The tumor model used in this assay is P388 Leukemia resistant to Vincristine; NSC 67574 (intraperitoneal) in B6D2F1 (BDF1) mice

[1] abbreviates: dose: 3.13 mg/kg/injection, schedule: Q01DX010 (ip), vehicle: saline.
The mark [2] stands for this setting: dose: 6.25 mg/kg/injection, schedule: Q01DX010 (ip), vehicle: saline.

As for `CO[C@H](C(=O)[C@@H](O)[C@@H](C)O)[C@@H]1Cc2cc3cc(OC4CC(OC5CC(O)C(O)C(C)O5)C(O)C(C)O4)c(C)c(O)c3c(O)c2C(=O)[C@H]1OC1CC(OC2CC(OC3CC(C)(O)C(O)C(C)O3)C(O)C(C)O2)C(O)C(C)O1` (stereo not given in full), the T/C (dose: 216.0 micrograms/kg/injection, schedule: Q01DX005 (ip), vehicle: water) was 97 % of control; the T/C (dose: 360.0 micrograms/kg/injection, schedule: Q01DX005 (ip), vehicle: water) is 100 % of control; the T/C (dose: 600.0 micrograms/kg/injection, schedule: Q01DX005 (ip), vehicle: water) is 95 % of control; the T/C (dose: 1000.0 micrograms/kg/injection, schedule: Q01DX005 (ip), vehicle: water) was 95 % of control.

`O=c1cnn(C2OC(CO)C(O)C2O)c(=O)[nH]1` (stereo not given): the T/C is 107 % of control (dose: 100.0 mg/kg/injection, schedule: Q01DX010 (ip), vehicle: saline); 114 % of control (dose: 200.0 mg/kg/injection, schedule: Q01DX010 (ip), vehicle: saline); 115 % of control and 121 % of control (dose: 400.0 mg/kg/injection, schedule: Q01DX010 (ip), vehicle: saline); 123 % of control (dose: 800.0 mg/kg/injection, schedule: Q01DX010 (ip), vehicle: saline); 88 % of control (dose: 1600.0 mg/kg/injection, schedule: Q01DX010 (ip), vehicle: saline).

Turning to `NC(Cc1ccc(N(CCCl)CCCl)cc1)C(=O)O` (stereo not given), the T/C runs as follows: (dose: 1.25 mg/kg/injection, schedule: Q01DX010 (ip), vehicle: saline) 170 % of control; (dose: 2.5 mg/kg/injection, schedule: Q01DX010 (ip), vehicle: saline) 190 % of control and 191 % of control; (dose: 5.0 mg/kg/injection, schedule: Q01DX010 (ip), vehicle: saline) 300 % of control; (dose: 10.0 mg/kg/injection, schedule: Q01DX010 (ip), vehicle: saline) 86 % of control and 91 % of control.

As for `O=C(O)CCCc1ccc(N(CCCl)CCCl)cc1`, the T/C reads like this: under setting [1], 92 % of control and 104 % of control; under setting [2], 100 % of control; (dose: 12.5 mg/kg/injection, schedule: Q01DX010 (ip), vehicle: saline) 152 % of control.

Regarding `O=C[C@@H](CO)O[C@H](C=O)n1cnc2c(=O)[nH]cnc21`, the T/C runs as follows: (dose: 180.0 mg/kg/injection, schedule: Q04DX003 (ip), vehicle: water) 210 % of control; (dose: 300.0 mg/kg/injection, schedule: Q04DX003 (ip), vehicle: water) 323 % of control.

Regarding `Cc1c2oc3c(C)ccc(C(=O)N[C@@H]4C(=O)N[C@H](C(C)C)C(=O)N5CCC[C@H]5C(=O)N(C)CC(=O)N(C)[C@@H](C(C)C)C(=O)O[C@H]4C)c3nc-2c(C(=O)N[C@@H]2C(=O)N[C@H](C(C)C)C(=O)N3CCC[C@H]3C(=O)N(C)CC(=O)N(C)[C@@H](C(C)C)C(=O)O[C@H]2C)c(N)c1=O` (I: [aThr][dV]P[Sar][NMeV] / II: [aThr][dV]P[Sar][NMeV]; ester I:1-I:C, II:1-II:C; linker I:N-II:N via Actinocin(9to1)), the T/C reads like this: (dose: 12.5 micrograms/kg/injection, schedule: Q01DX010 (ip), vehicle: other) 108 % of control and 112 % of control; (dose: 25.0 micrograms/kg/injection, schedule: Q01DX010 (ip), vehicle: other) 124 % of control; (dose: 108.0 micrograms/kg/injection, schedule: Q04DX003 (ip), vehicle: saline + alcohol) 103 % of control; (dose: 180.0 micrograms/kg/injection, schedule: Q04DX003 (ip), vehicle: saline + alcohol) 110 % of control; (dose: 300.0 micrograms/kg/injection, schedule: Q04DX003 (ip), vehicle: saline + alcohol) 106 % of control; (dose: 500.0 micrograms/kg/injection, schedule: Q04DX003 (ip), vehicle: saline + alcohol) 93 % of control.

Regarding `CNc1nc(Nc2ccc(C3=NCCN3)cc2)nc(Nc2ccc(C3=NCCN3)cc2)n1`, the T/C reads like this: (dose: 20.0 mg/kg/injection, schedule: Q01DX010 (ip), vehicle: saline) 116 % of control; (dose: 30.0 mg/kg/injection, schedule: Q01DX010 (ip), vehicle: saline) 108 % of control; (dose: 45.0 mg/kg/injection, schedule: Q01DX010 (ip), vehicle: saline) 91 % of control.

Take `CCCNC(=NC)c1ccc(NC(=O)c2ccc(C(=O)Nc3ccc(C(=NC)NCCC)cc3)cc2)cc1`: the T/C was 113 % of control (dose: 5.2 mg/kg/injection, schedule: Q01DX010 (ip), vehicle: saline); 113 % of control (dose: 8.0 mg/kg/injection, schedule: Q01DX010 (ip), vehicle: saline); 118 % of control (dose: 12.0 mg/kg/injection, schedule: Q01DX010 (ip), vehicle: saline); 100 % of control (dose: 18.0 mg/kg/injection, schedule: Q01DX010 (ip), vehicle: saline).

As to `CC[C@]1(O)C[C@H]2CN(CCc3c([nH]c4ccccc34)[C@@](C(=O)OC)(c3cc4c(cc3OC)N(C=O)[C@H]3[C@@](O)(C(=O)OC)[C@H](OC(C)=O)[C@]5(CC)C=CCN6CC[C@]43[C@@H]65)C2)C1`, the T/C reads like this: (dose: 0.03 mg/kg/injection, schedule: Q01DX010 (ip), vehicle: saline) 110 % of control; (dose: 0.06 mg/kg/injection, schedule: Q01DX010 (ip), vehicle: saline) 113 % of control; (dose: 0.12 mg/kg/injection, schedule: Q01DX010 (ip), vehicle: saline) 114 % of control; (dose: 0.36 mg/kg/injection, schedule: Q04DX003 (ip), vehicle: saline) 106 % of control; (dose: 0.6 mg/kg/injection, schedule: Q04DX003 (ip), vehicle: saline) 109 % of control; (dose: 1.0 mg/kg/injection, schedule: Q04DX003 (ip), vehicle: saline) 113 % of control. Also, the T/C by setting is: (dose: 1.67 mg/kg/injection, schedule: Q04DX003 (ip), vehicle: saline) 107 % of control; (dose: 250.0 micrograms/kg/injection, schedule: Q04DX003 (ip), vehicle: saline) 111 % of control; (dose: 324.0 micrograms/kg/injection, schedule: Q04DX003 (ip), vehicle: saline) 98 % of control and 103 % of control; (dose: 360.0 micrograms/kg/injection, schedule: Q04DX003 (ip), vehicle: saline) 101 % of control and 104 % of control; (dose: 389.0 micrograms/kg/injection, schedule: Q04DX003 (ip), vehicle: saline) 109 % of control; (dose: 432.0 micrograms/kg/injection, schedule: Q04DX003 (ip), vehicle: saline) 106 % of control. Also, the T/C is, setting by setting: (dose: 500.0 micrograms/kg/injection, schedule: Q04DX003 (ip), vehicle: saline) 107 % of control; (dose: 540.0 micrograms/kg/injection, schedule: Q04DX003 (ip), vehicle: saline) 99 % of control and 104 % of control; (dose: 600.0 micrograms/kg/injection, schedule: Q04DX003 (ip), vehicle: saline) 99 % of control and 103 % of control; (dose: 648.0 micrograms/kg/injection, schedule: Q04DX003 (ip), vehicle: saline) 118 % of control; (dose: 720.0 micrograms/kg/injection, schedule: Q04DX003 (ip), vehicle: saline) 104 % of control; (dose: 900.0 micrograms/kg/injection, schedule: Q04DX003 (ip), vehicle: saline) 104 % of control and 111 % of control. In addition, the T/C (dose: 1000.0 micrograms/kg/injection, schedule: Q04DX003 (ip), vehicle: saline) is 95 % of control and 104 % of control and 108 % of control; the T/C (dose: 1080.0 micrograms/kg/injection, schedule: Q04DX003 (ip), vehicle: saline) is 113 % of control; the T/C (dose: 1200.0 micrograms/kg/injection, schedule: Q04DX003 (ip), vehicle: saline) was 107 % of control; the T/C (dose: 1500.0 micrograms/kg/injection, schedule: Q04DX003 (ip), vehicle: saline) is 99 % of control and 101 % of control; the T/C (dose: 1670.0 micrograms/kg/injection, schedule: Q04DX003 (ip), vehicle: saline) was 100 % of control; the T/C (dose: 1800.0 micrograms/kg/injection, schedule: Q04DX003 (ip), vehicle: saline) was 115 % of control. In addition, the T/C (dose: 2000.0 micrograms/kg/injection, schedule: Q04DX003 (ip), vehicle: saline) is 108 % of control and 111 % of control.

As to `CC[C@](O)(C(=O)O)c1cc2n(c(=O)c1CO)Cc1cc3ccccc3nc1-2`, the T/C is, setting by setting: (dose: 14.4 mg/kg/injection, schedule: Q04DX003 (ip), vehicle: saline) 155 % of control; (dose: 24.0 mg/kg/injection, schedule: Q04DX003 (ip), vehicle: saline) 180 % of control; (dose: 40.0 mg/kg/injection, schedule: Q04DX003 (ip), vehicle: saline) 102 % of control; (dose: 66.7 mg/kg/injection, schedule: Q04DX003 (ip), vehicle: saline) 161 % of control.

Consider `COC(=O)Nc1nc2ccc(C(=O)c3cccs3)cc2[nH]1`, for which the T/C by setting is: (dose: 21.6 mg/kg/injection, schedule: Q04DX003 (ip), vehicle: other) 151 % of control; (dose: 36.0 mg/kg/injection, schedule: Q04DX003 (ip), vehicle: other) 242 % of control; (dose: 60.0 mg/kg/injection, schedule: Q04DX003 (ip), vehicle: other) 189 % of control.

For the compound `N=[N+]=CC(=O)OCC(N)C(=O)O` (stereo not given), the T/C under setting [1] is 152 % of control and the T/C under setting [2] is 165 % of control.
